This note sets out measurements from patent US20150004620A1, “METHOD OR DEVICE FOR IDENTIFYING INHIBITOR OF EPITHELIAL MESENCHYMAL TRANSITION” (Agency for Science, Technology and Research, priority 2011, published 2015).

Each structure is given as a SMILES string. Read-outs that look alike come from different tables or passages of the source.

What all share (assay type): cell-based
The test system of test [1] is EGF-induced EMT in NBT-II cells. Briefly: EMT spot migration assay, EGF-induced. The settings on record: for IC50: read-out: Cell Dispersion IC 50, EGF; for Cell dispersion pattern at T2 (FIG. 1D): 6.67 μM compound and EGF. How it is done: (§1) NBT-II cells were stably transfected with mcherry-fluorescent H2B and maintained in DMEM supplemented with 10% fetal bovine serum (FBS, Thermo Scientific), 1 μg/ml puromycin (Sigma) and 100 units/ml penicillin-streptomycin (1× pen-strep, Invitrogen). Cells were grown to 80% confluency in tissue culture flasks prior to plating. Cells were trypsinized and concentrated to a density of 5×10^6 cell/ml in CO2-independent medium (Invitrogen) supplemented with 10% FBS. The cell suspension was then evenly dispersed into the wells of two columns of a 96-well V-bottom plate. Using a robotic liquid-handling station (Bravo, Agilent Technologies), 0.5 μl of cell suspension was transferred from the two columns of the cell suspension-loaded plate and deposited into the center of the wells of two columns of a 96-well clear bottom, black assay plate (Corning). This process was repeated six times so that all 96 wells of the assay plate were deposited with a cell suspension spot. The plate was then sealed to minimize evaporation of the cell suspension spots and transferred to a 37° C., 5% CO2 incubator to allow for cells to attach to the culture surface. After 1 hour, the plate was gently washed with medium once to remove unattached cells, refreshed with 100 μl of assay medium (DMEM supplemented with 10% FBS and 1× pen-strep), and then further incubated to allow for cell-cell contacts to establish in the cell colonies.
(§2) Four tiled, non-overlapping images were acquired around the center of each well, and were then stitched together during image analysis to generate a montage covering an area of 3.2 mm×3.2 mm. These images (T1) represent the initial state of the cell colonies before EMT induction.
(§3) After the T1 images were acquired, 1 μl of test compounds were transferred from compound stock plates and added to the assay plates. Appropriate negative controls (1 μl DMSO) and positive controls (1 μl 1.0 mM compound in DMSO) were also added into columns 1 and 12 of each assay plate, respectively. […] The cultures were then further incubated overnight.
(§4) The next day, 50 μl of growth factor-containing medium was added to each well of the assay-plates. For each of the growth factor-induced EMT spot migration assays, the final growth factor concentrations in each well is optimized to be 20 ng/ml EGF (Sigma), 4 ng/ml HGF (Calbiochem) or 150 ng/ml IGF-1 (R&D Systems), respectively. The cultures were then incubated for another 24 hours, to allow for EMT and sufficient cell motility/dispersion to occur in the cell colonies.
(§5) Finally, the cell colonies were imaged again using the microplate imager, as described above. These images (T2) represent the final state of the cell colonies after compound treatment and EMT induction. The acquired T1 and T2 image sets for each assay plate were then sent for image analysis.
(§6) The acquisition of each well was obtained by four adjacent field images with no interstice in between. Each field image was loaded and nuclei were initially segmented independently of other fields to prevent artifact at the field border. Nuclei segmentation was achieved by combining a wavelet transform which is robust to noise and unhomogeneous background, and a watershed algorithm based on intensities to split nuclei clusters. Mask of nuclei segmentation of the different fields were then stitched together in order to obtain a large segmentation of the whole well. Cell bodies were estimated by applying a morphological dilation on the nucleus segmentation using a disk of 30 pixels (48 μm) in diameter. In cells that are contiguous, such as in a cell colony, nuclei segmentation dilation will result in the formation of continuous region areas with surrounding cells which can then be identified as colonies.
(§7) Total cell number and spreading coefficient values for each well were then exported into an Excel sheet.

Test [2] has as its system HGF-induced EMT in NBT-II cells. The test is described as follows: EMT spot migration assay, HGF-induced. The settings on record: for IC50: HGF-induced EMT (4 ng/ml HGF), CDR dose response from 6.67 μM, read-out: Cell Dispersion IC 50, HGF. Here is the method: as §1, §2, §3, §4, §5, §6, §7
Test [3] relates to IGF-1-induced EMT in NBT-II cells. The test is described as follows: EMT spot migration assay, IGF-1-induced. The settings on record: IGF-1-induced EMT (150 ng/ml IGF-1), CDR dose response from 6.67 μM, read-out: Cell Dispersion IC 50, IGF-1. How it is done:
as §1, §2, §3, §4, §5, §6, §7

Another test relates to E-cadherin. The test is described as follows: Western blot of EMT marker E-cadherin in growth factor-treated NBT-II cells. The following applies: NBT-II cells, 0.5, 2 and 8 μM compound overnight, then EGF, HGF or IGF-1 for 24 h (FIG. 7). How it is done: NBT-II cells were treated with compounds at 0.5, 2 and 8 μM overnight and incubated with a growth factor for 24 h. Cells were lysed with protease/phosphatase inhibitor-containing RIPA buffer. Proteins are separated in 8% polyacrylamide gels and transferred to PDVF membranes. Membranes were blocked in 5% BSA and incubated at 4° C. overnight with MMP-13 (Millipore), E-cadherin (BD) and α-tubulin (Sigma) primary antibodies. Membranes were then developed with HRP-conjugated secondary antibody (Amersham) and ECL substrate (Millipore).
The possibilities that ALK5, MEK, PI3K and SRC targeting compounds could modulate the expression of EMT markers, such as E-cadherin and matrix metalloproteinase-13 (MMP-13) under EMT-activated conditions were also investigated (FIG. 7). With the exception of P13K inhibitor GDC-0941, the compounds in general abrogated MMP-13 expression in growth factor-treated samples, PI3K inhibition has been previously shown to augment MMP-13 expression. […] These findings are consistent with previous reports showing that ALK5, MEK and SRC play a role in cell motility and tumor progression, while PI3K predominately regulates cell proliferation.
(In general: Immunoblotting shows a protein as a band on a membrane.)

The next test concerns MMP-13. The test is described as follows: Western blot of EMT marker MMP-13 in growth factor-treated NBT-II cells. The settings on record: NBT-II cells, 0.5, 2 and 8 μM compound overnight, then growth factor for 24 h (FIG. 7).
[4] abbreviates: EGF-induced EMT (20 ng/ml EGF), NBT-II cells, CDR dose response from 6.67 μM.

As to `Cc1cccc(-c2nn(C(=S)Nc3ccccc3)cc2-c2ccnc3ccccc23)n1` [A83-01], the IC50 in test [1] (setting [4]) amounted to 69 nM; in test [2], 130 nM; in test [3] it was 120 nM. The E-cadherin expression entry with E-cadherin was “restored the E-cadherin protein levels”.
Regarding `COc1cc2ncnc(Nc3cccc(Cl)c3)c2cc1OC` [AG1478], the IC50 is 330 nM in test [1] (setting [4]), greater than 5000 nM in test [2] and greater than 5000 nM in test [3].
Consider `Cn1cnc2c(F)c(Nc3ccc(Br)cc3Cl)c(C(=O)NOCCO)cc21` [AZD6244], for which the IC50 in test [1] (setting [4]) came out at 840 nM; in test [2], 790 nM; in test [3], 880 nM.
With `Cc1cc(N2CCOCC2)cc2[nH]c(-c3c(NC[C@@H](O)c4cccc(Cl)c4)cc[nH]c3=O)nc12` [BMS-536924], the IC50 was greater than 5000 nM in test [1] (setting [4]), 2300 nM in test [2] and 170 nM in test [3].
For `O=C(NOCC1CC1)c1ccc(F)c(F)c1Nc1ccc(I)cc1Cl` [CI-1040], in that order: 1000 nM, 820 nM and 1200 nM.
Take `NC(=O)c1ccc(-c2nc(-c3ccc4c(c3)OCCO4)c(-c3ccccn3)[nH]2)cc1` [D4476]: the results for the IC50 in test [1] (setting [4]), in test [2] and in test [3] were 1100 nM, 1400 nM and 1900 nM, respectively.
For `C#Cc1cccc(Nc2ncnc3cc(OCCOC)c(OCCOC)cc23)c1` [Erlotinib], the results for the IC50 in test [1], in test [2] and in test [3] were 950 nM, greater than 5000 nM and greater than 5000 nM, respectively.
As to `CS(=O)(=O)N1CCN(Cc2cc3nc(-c4cccc5[nH]ncc45)nc(N4CCOCC4)c3s2)CC1` [GDC-0941], the IC50 was found to be 740 nM in test [1] (setting [4]), 380 nM in test [2] and 500 nM in test [3]. Besides, the E-cadherin expression entry in the test with E-cadherin is “restored the E-cadherin protein levels”. In the test on MMP-13, the MMP-13 expression result is “exception”.
As for `Cn1cc(-c2ccc3nnc(C(F)(F)c4ccc5ncccc5c4)n3n2)cn1` [JNJ-38877605], the IC50 is greater than 5000 nM in test [1] (setting [4]), 94 nM in test [2] and greater than 5000 nM in test [3].
As to `c1ccc(-c2[nH]ncc2-c2ccnc3ccccc23)nc1` [LY-364947], the IC50 was 140 nM in test [1] (setting [4]), 180 nM in test [2] and 240 nM in test [3].
For `CS(=O)(=O)CCNCc1ccc(-c2ccc3ncnc(Nc4ccc(OCc5cccc(F)c5)c(Cl)c4)c3c2)o1` [Lapatinib], in that order: 620 nM, greater than 5000 nM and greater than 5000 nM.
Consider `COc1cc2ncnc(Nc3cccc(Br)c3)c2cc1OC` [PD153035], for which the “Cell dispersion pattern at T2 (FIG. 1D)” value in test [1] (NBT-II cells) is “pattern of inhibition”. For the same compound, the IC50 was 550 nM in test [1] (setting [4]), greater than 5000 nM in test [2] and greater than 5000 nM in test [3].
Turning to `CNc1cc2c(Nc3cccc(Br)c3)ncnc2cn1` [PD158780], the figures for the IC50 in test [1] (setting [4]), in test [2] and in test [3] were 1200 nM, greater than 5000 nM and greater than 5000 nM, respectively.
Regarding `O=C(NOC[C@H](O)CO)c1ccc(F)c(F)c1Nc1ccc(I)cc1F` [PD0325901], the IC50 in test [1] (setting [4]) came to 31 nM; in test [2], 20 nM; in test [3], 8.9 nM. In addition, the E-cadherin expression result with E-cadherin is recorded as “augment E-cadherin expression”.
`OCCn1cc(-c2cnc3nnn(Cc4ccc5ncccc5c4)c3n2)cn1` [PF-04217903]: the IC50 in test [1] (setting [4]) was greater than 5000 nM; in test [2], 55 nM; in test [3] it was greater than 5000 nM. Also, the “Inhibition of HGF-induced EMT (growth factor specificity)” value in test [2] (spot migration assay) is on record as “specifically inhibited HGF-induced EMT”.
Regarding `Oc1cccc(-c2nc(N3CCOCC3)c3oc4ncccc4c3n2)c1` [PI-103], the IC50 amounted to 680 nM in test [1] (setting [4]), 380 nM in test [2] and 400 nM in test [3].
As to `COc1ccc2c(c1OC)N=C(NC(=O)c1cccnc1)N1CCN=C21` [PIK-90], the figures for the IC50 in test [1] (setting [4]), in test [2] and in test [3] were 950 nM, 400 nM and 620 nM, respectively.
`Cc1ccc(-c2nn(C(C)(C)C)c3ncnc(N)c23)cc1` [PP1]: the “Cell dispersion pattern at T2 (FIG. 1D)” value in test [1] (NBT-II cells) was “pattern of inhibition”. For the same compound, the IC50 came to 2300 nM in test [1] (setting [4]), 2000 nM in test [2] and 1200 nM in test [3].
`NC(=O)c1ccc(-c2nc(-c3ccc4c(c3)OCO4)c(-c3ccccn3)[nH]2)cc1` [SB-431542]: the IC50 in test [1] (setting [4]) came out at 1600 nM; in test [2] it was 940 nM; in test [3], 820 nM.
For `Fc1ccc(Cl)cc1-c1nc(Nc2ccncc2)c2nccnc2n1` [SD-208] the same measures were 85 nM, 110 nM and 150 nM.
For `COc1cc2ncnc(Nc3ccc(O)c(Br)c3)c2cc1OC` [WHI-P154] the same measures were 800 nM, greater than 5000 nM and greater than 5000 nM.
For `FC(F)c1nc2ccccc2n1-c1nc(N2CCOCC2)nc(N2CCOCC2)n1` [ZSTK474] the same measures were 850 nM, 410 nM and 660 nM.
